Assay [1] concerns the target PI3K (Homo sapiens, UniProt P42336). The experiment in a line: Fluorescence polarization assay for PI3K.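 Note: PI3K kinase reaction on PIP2 with ATP, 30-60 min, product sensed by GST-GRP with red probe in fluorescence polarization (mP), controls without enzyme and at zero time.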 To be noted: PI3Kα; read-out: PI3Kα IC50. The class given is biochemical.
Assay [2] relates to prostate line LNCap. Description: In vitro cell culture growth assay (MTS), LNCap.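 Note: viable cell density read by absorbance at 490 nm, growth expressed as percent of vehicle-treated cells on the same plate.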 The class given is cell-based, human. To be noted: LNCap cells, three days after drug treatment.
The test system of assay [3] is breast line MDA468. The experiment in a line: In vitro cell culture growth assay (MTS), MDA468. To be noted: MDA468 cells, three days after drug treatment. The class given is cell-based, human. The method, boiled down: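 Growth measured as percent of same-plate vehicle control by MTS metabolic dye conversion (A490). Breast MDA468 and prostate LNCap cells, plated a day ahead, were exposed to compounds for 3 days.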

Chain of PI3K (P42336 whole entry): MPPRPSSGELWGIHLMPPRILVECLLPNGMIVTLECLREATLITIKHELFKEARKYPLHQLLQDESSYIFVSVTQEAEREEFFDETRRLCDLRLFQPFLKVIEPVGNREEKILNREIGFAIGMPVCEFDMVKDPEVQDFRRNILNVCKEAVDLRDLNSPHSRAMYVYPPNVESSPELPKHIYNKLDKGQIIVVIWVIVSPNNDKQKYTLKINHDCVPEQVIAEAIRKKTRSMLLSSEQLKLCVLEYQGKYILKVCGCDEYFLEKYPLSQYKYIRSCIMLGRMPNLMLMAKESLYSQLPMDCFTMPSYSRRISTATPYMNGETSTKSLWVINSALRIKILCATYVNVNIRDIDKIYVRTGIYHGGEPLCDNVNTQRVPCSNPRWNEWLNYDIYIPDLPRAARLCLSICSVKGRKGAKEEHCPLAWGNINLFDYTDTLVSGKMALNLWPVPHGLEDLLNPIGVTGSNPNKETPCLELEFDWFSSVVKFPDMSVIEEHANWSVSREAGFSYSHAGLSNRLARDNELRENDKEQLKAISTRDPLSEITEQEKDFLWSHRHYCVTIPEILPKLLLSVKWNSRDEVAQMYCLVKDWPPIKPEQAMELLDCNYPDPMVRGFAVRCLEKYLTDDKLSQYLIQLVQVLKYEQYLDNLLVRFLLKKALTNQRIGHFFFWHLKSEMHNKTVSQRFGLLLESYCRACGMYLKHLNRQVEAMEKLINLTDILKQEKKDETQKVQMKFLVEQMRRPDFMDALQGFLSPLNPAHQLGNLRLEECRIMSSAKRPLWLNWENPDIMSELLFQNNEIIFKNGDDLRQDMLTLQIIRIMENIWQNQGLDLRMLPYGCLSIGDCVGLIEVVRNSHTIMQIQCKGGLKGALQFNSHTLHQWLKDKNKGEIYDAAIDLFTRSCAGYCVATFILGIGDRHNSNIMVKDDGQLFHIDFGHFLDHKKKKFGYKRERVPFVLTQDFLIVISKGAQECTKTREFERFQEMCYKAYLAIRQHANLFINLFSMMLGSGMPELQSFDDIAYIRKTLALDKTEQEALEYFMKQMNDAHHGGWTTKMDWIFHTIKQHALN
Chain of PI3K (P27986 whole entry partner): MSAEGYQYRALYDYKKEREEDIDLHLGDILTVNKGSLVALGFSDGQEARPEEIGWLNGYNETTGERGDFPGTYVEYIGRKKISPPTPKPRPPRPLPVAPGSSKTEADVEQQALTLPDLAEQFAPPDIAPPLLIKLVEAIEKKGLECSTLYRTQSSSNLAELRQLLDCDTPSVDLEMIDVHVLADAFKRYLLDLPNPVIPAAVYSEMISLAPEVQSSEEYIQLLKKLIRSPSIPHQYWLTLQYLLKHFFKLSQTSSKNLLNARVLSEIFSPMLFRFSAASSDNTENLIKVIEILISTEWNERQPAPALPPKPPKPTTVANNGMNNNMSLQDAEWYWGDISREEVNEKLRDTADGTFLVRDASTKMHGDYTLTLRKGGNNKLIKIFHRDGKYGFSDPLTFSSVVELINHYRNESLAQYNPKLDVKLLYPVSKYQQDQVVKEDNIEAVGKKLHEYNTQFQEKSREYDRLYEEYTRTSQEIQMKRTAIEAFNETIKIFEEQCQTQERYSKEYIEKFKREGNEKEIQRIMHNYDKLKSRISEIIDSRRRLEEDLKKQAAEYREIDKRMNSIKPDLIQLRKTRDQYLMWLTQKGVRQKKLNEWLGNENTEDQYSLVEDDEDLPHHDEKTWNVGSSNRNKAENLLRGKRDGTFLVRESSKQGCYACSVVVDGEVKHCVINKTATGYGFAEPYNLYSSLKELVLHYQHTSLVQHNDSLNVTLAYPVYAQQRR

With `Cc1cc(NC(=O)Nc2ccc(-c3nc(N4CCOCC4)c4cnn(C5CCN(C(=O)OC(C)(C)C)CC5)c4n3)cc2)on1` [Compound 883, tert-butyl 4-[6-(4-{[(3-methylisoxazol-5-yl)carbamoyl]amino}phenyl)-4-morpholin-4-yl-1H-pyrazolo[3,4-d]pyrimidin-1-yl]piperidine-1-carboxylate], the IC50 is 0.16 µM in assay [1]; 0.27 µM in assay [2] (Homo sapiens, LNCaP, 72 h); 1.3 µM in assay [3] (Homo sapiens, 72 h).
The corresponding values for `COC(=O)N1CCC(n2ncc3c(N4CCOCC4)nc(-c4ccc(NC(=O)Nc5ccccn5)cc4)nc32)CC1` [Compound 736, methyl 4-(4-morpholin-4-yl-6-{4-[(pyridin-2-ylcarbamoyl)amino]phenyl}-1H-pyrazolo[3,4-d]pyrimidin-1-yl)piperidine-1-carboxylate] are 1.15 µM, 0.565 µM and 17 µM.
Take `C#CCNC(=O)Nc1ccc(-c2nc(N3CCOCC3)c3cnn(C4CCN(Cc5ccccc5)CC4)c3n2)cc1` [Compound 312, 1-{4-[1-(1-benzylpiperidin-4-yl)-4-morpholin-4-yl-1H-pyrazolo[3,4-d]pyrimidin-6-yl]phenyl}-3-prop-2-yn-1-ylurea]: the IC50 in assay [1] was 0.173 µM; in assay [2] (Homo sapiens, LNCaP, 72 h), 0.4 µM; in assay [3] (Homo sapiens, 72 h), 3.9 µM.
Take `c1ccc(-n2ncc3c(N4CCOCC4)nc(-c4cc5ccccc5s4)nc32)cc1` [Compound 113]: the IC50 was determined as 2.17 µM in assay [1]; 22 µM in assay [2] (Homo sapiens, LNCaP, 72 h); 23 µM in assay [3] (Homo sapiens, 72 h).
Regarding `O=C(Nc1ccccc1)Nc1ccc(-c2nc(N3CCOCC3)c3cnn(C4CCN(Cc5cccnc5)CC4)c3n2)cc1` [Compound 586, 1-(4-{4-morpholin-4-yl-1-[1-(pyridin-3-ylmethyl)piperidin-4-yl]-1H-pyrazolo[3,4-d]pyrimidin-6-yl}phenyl)-3-phenylurea], the IC50 in assay [1] amounted to 0.011 µM; in assay [2] (Homo sapiens, LNCaP, 72 h), 0.031 µM; in assay [3] (Homo sapiens, 72 h) it was 0.22 µM.
For `CC(C)(C)OC(=O)N1CCC[C@@H](n2ncc3c(N4CCOCC4)nc(-c4ccc5[nH]ccc5c4)nc32)C1` [Compound 167], the IC50 worked out at 0.89 µM in assay [1]; 3 µM in assay [2] (Homo sapiens, LNCaP, 72 h); 3.1 µM in assay [3] (Homo sapiens, 72 h).
As to `COC(=O)N1CCC(n2ncc3c(N4CCOCC4)nc(-c4ccc(NC(=O)OCCN)cc4)nc32)CC1` [Compound 903, methyl 4-[6-(4-{[(2-aminoethoxy)carbonyl]amino}phenyl)-4-morpholin-4-yl-1H-pyrazolo[3,4-d]pyrimidin-1-yl]piperidine-1-carboxylate], the IC50 in assay [1] came to 0.132 µM; in assay [2] (Homo sapiens, LNCaP, 72 h) it was 3.2 µM; in assay [3] (Homo sapiens, 72 h), 8 µM.
As for `Clc1ccc(CN2CCC(n3ncc4c(N5CCOCC5)nc(-c5ccc6[nH]ccc6c5)nc43)CC2)cn1` [Compound 174, 1-{1-[(6-chloropyridin-3-yl)methyl]piperidin-4-yl}-6-(1H-indol-5-yl)-4-orpholin-4-yl-1H-pyrazolo[3,4-d]pyrimidine], the IC50 in assay [1] was 0.304 µM; in assay [2] (Homo sapiens, LNCaP, 72 h), 1 µM; in assay [3] (Homo sapiens, 72 h) it was 2.8 µM.
In the case of `COC(=O)Nc1ccc(-c2nc(N3CCOCC3)c3cnn(C4CCN(Cc5ccc(F)cc5)CC4)c3n2)cc1` [Compound 450, methyl (4-{1-[1-(4-fluorobenzyl)piperidin-4-yl]-4-morpholin-4-yl-1H-pyrazolo[3,4-d]pyrimidin-6-yl}phenyl)carbamate], the IC50 in assay [1] was 0.75 µM; in assay [2] (Homo sapiens, LNCaP, 72 h) it was 1.2 µM; in assay [3] (Homo sapiens, 72 h) it was 2.6 µM.
On to `Cc1ccc(C(=O)N2CCC(n3ncc4c(N5CCOCC5)nc(-c5ccc6[nH]ccc6c5)nc43)CC2)cn1` [Example 202, 6-(1H-indol-5-yl)-1-{1-[(6-methylpyridin-3-yl)carbonyl]piperidin-4-yl}-4-morpholin-4-yl-1H-pyrazolo[3,4-d]pyrimidine], for which the IC50 stood at 2.1 µM in assay [1]; 0.4 µM in assay [2] (Homo sapiens, LNCaP, 72 h); 2 µM in assay [3] (Homo sapiens, 72 h).
The corresponding values for `Fc1ccc(CN2CCC(n3ncc4c(N5CCOCC5)nc(-c5ccc6[nH]ccc6c5)nc43)CC2)cc1` [Example 55] are 0.686 µM, 2.5 µM and 3 µM.
On to `CNC(=O)Nc1ccc(-c2nc(N3C[C@@H](C)O[C@@H](C)C3)c3cnn(C4CCN(Cc5cccnc5)CC4)c3n2)cc1` [Compound 941, 1-(4-{4-[(2R,6S)-2,6-dimethylmorpholin-4-yl]-1-[1-(pyridin-3-ylmethyl)piperidin-4-yl]-1H-pyrazolo[3,4-d]pyrimidin-6-yl}phenyl)-3-methylurea], for which the IC50 in assay [1] is 3.88 µM; in assay [2] (Homo sapiens, LNCaP, 72 h), 2 µM; in assay [3] (Homo sapiens, 72 h), 9 µM.
For the compound `CNC(=O)N1CCC(n2ncc3c(N4CCOCC4)nc(-c4ccc(NC(=O)OC)cc4)nc32)CC1` [Compound 813, methyl (4-{1-[1-(methylcarbamoyl)piperidin-4-yl]-4-morpholin-4-yl-1H-pyrazolo[3,4-d]pyrimidin-6-yl}phenyl)carbamate], the IC50 in assay [1] was 1.96 µM; in assay [2] (Homo sapiens, LNCaP, 72 h), 2.25 µM; in assay [3] (Homo sapiens, 72 h) it was 4.4 µM.
`CNC(=O)Nc1ccc(-c2nc(N3CCOCC3)c3cnn(C4CCN(Cc5ccccc5Cl)CC4)c3n2)cc1` [Compound 641, 1-(4-{1-[1-(2-chlorobenzyl)piperidin-4-yl]-4-morpholin-4-yl-1H-pyrazolo[3,4-d]pyrimidin-6-yl}phenyl)-3-methylurea]: the IC50 in assay [1] came to 0.035 µM; in assay [2], 0.038 µM; in assay [3], 0.18 µM.
In the case of `CC(C)(C)OC(=O)N1CCC(n2ncc3c(N4CCOCC4)nc(-c4ccc(NC(=O)Nc5ccc(F)nc5)cc4)nc32)CC1` [Compound 952, tert-butyl 4-[6-(4-{[(6-fluoropyridin-3-yl)carbamoyl]amino}phenyl)-4-morpholin-4-yl-1H-pyrazolo[3,4-d]pyrimidin-1-yl]piperidine-1-carboxylate], the half-maximal inhibitory concentration (IC50) in assay [1] was found to be 0.13 µM; in assay [2] (Homo sapiens, LNCaP, 72 h), 0.06 µM; in assay [3] (Homo sapiens, 72 h), 0.75 µM.
In the case of `CC(=O)Nc1cccc(-c2nc(N3CCOCC3)c3cnn(-c4ccccc4)c3n2)c1` [Compound 115], the IC50 amounted to 0.357 µM in assay [1]; 5.2 µM in assay [2] (Homo sapiens, LNCaP, 72 h); 9 µM in assay [3] (Homo sapiens, 72 h).
`O=C1Cc2cc(-c3nc(N4CCOCC4)c4cnn(-c5ccccc5)c4n3)ccc2N1` [Compound 433, 5-(4-morpholin-4-yl-1-phenyl-1H-pyrazolo[3,4-d]pyrimidin-6-yl)-1,3-dihydro-2H-indol-2-one]: the IC50 stood at 1.03 µM in assay [1]; 60 µM in assay [2] (Homo sapiens, LNCaP, 72 h); 60 µM in assay [3] (Homo sapiens, 72 h).
As to `COC(=O)N1CCC(n2ncc3c(N4CCOCC4)nc(-c4ccc(NC(=O)Nc5ccc(CCN6CCNCC6)cc5)cc4)nc32)CC1` [Compound 916, methyl 4-{4-morpholin-4-yl-6-[4-({[4-(2-piperazin-1-ylethyl)phenyl]carbamoyl}amino)phenyl]-1H-pyrazolo[3,4-d]pyrimidin-1-yl}piperidine-1-carboxylate], the IC50 in assay [1] was found to be 0.02 µM; in assay [2] (Homo sapiens, LNCaP, 72 h), 0.0013 µM; in assay [3] (Homo sapiens, 72 h), 0.11 µM.
For `CC(C)(C)OC(=O)N1CCC(n2ncc3c(N4CCOCC4)nc(-c4ccc(NC(=O)Nc5cccnc5)cc4)nc32)CC1` [Compound 770, tert-butyl 4-(4-morpholin-4-yl-6-{4-[(pyridin-3-ylcarbamoyl)amino]phenyl}-1H-pyrazolo[3,4-d]pyrimidin-1-yl)piperidine-1-carboxylate], the IC50 was determined as 0.056 µM in assay [1]; 0.105 µM in assay [2] (Homo sapiens, LNCaP, 72 h); 0.26 µM in assay [3] (Homo sapiens, 72 h).

The values are drawn from US20080234262A1 (Wyeth, priority 2007, published 2008).
